These results are taken from BindingDB's records for doi:10.1021/jm980032l (Wake Forest University School of Medicine, 1998).

Each structure is given as a SMILES string.

Sigma non-opioid intracellular receptor 1 (Cavia porcellus), sequence (Q60492 whole entry, looked up): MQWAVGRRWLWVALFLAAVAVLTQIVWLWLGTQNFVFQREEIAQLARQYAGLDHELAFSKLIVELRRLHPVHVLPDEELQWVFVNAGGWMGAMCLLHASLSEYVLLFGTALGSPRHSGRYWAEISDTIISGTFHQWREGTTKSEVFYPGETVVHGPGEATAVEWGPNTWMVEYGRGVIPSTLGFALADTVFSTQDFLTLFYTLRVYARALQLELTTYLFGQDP

The first experiment has as its target Sigma non-opioid intracellular receptor 1 (Cavia porcellus) (UniProt Q60492). The experiment in a line: Compound tested for binding affinity towards sigma 1 receptor in quinea pig brain membranes using [3H](+)-pentazocine as the radioligand.
As for `O=C(Cc1ccc(O)c(O)c1)NC1CCN(Cc2ccccc2)CC1` [N-(1-Benzyl-piperidin-4-yl)-2-(3,4-dihydroxy-phenyl)-acetamide], the Ki was greater than 1000 nM.

A further experiment shares this target. The experiment in a line: Binding affinity against sigma-1 receptor in guinea pig brain membranes using [3H](+)-pentazocine as the radioligand.
In the case of `COc1ccc(NC(=O)NC2CCN(Cc3ccccc3)CC2)c(OC)c1` [1-(1-Benzyl-piperidin-4-yl)-3-(2,4-dimethoxy-phenyl)-urea], affinity was put at a Ki of 30.1 nM. This lies in the double-digit nanomolar range. Still for that read-out and setting: the figure for `CSc1ccc(NC(=O)NC2CCN(Cc3ccccc3)CC2)cc1` [1-(1-Benzyl-piperidin-4-yl)-3-(4-methylsulfanyl-phenyl)-urea] is 63.9 nM; for `COc1cccc(C(O)CNC2CCN(Cc3ccccc3)CC2)c1OC` (stereo not given) [2-(1-Benzyl-piperidin-4-ylamino)-1-(2,3-dimethoxy-phenyl)-ethanol] it is 32.1 nM; for `Nc1ccc(CC(=O)NC2CCN(Cc3ccccc3)CC2)cc1` [2-(4-Amino-phenyl)-N-(1-benzyl-piperidin-4-yl)-acetamide] it is 470 nM.

On to `O=C(Cc1ccc2c(c1)OCO2)NC1CCN(Cc2ccccc2)CC1` [2-Benzo[1,3]dioxol-5-yl-N-(1-benzyl-piperidin-4-yl)-acetamide], for which the affinity, expressed as Ki, was 7.32 nM. This Ki lies about 64-fold lower than the previous one. The same measure, in the same setting: the figure for `O=C(Cc1ccc(Cl)cc1Cl)NC1CCN(Cc2ccccc2)CC1` [N-(1-Benzyl-piperidin-4-yl)-2-(2,4-dichloro-phenyl)-acetamide] is 9.66 nM. On the same count and under the same terms, the value for `O=C(Cc1ccc(F)cc1F)NC1CCN(Cc2ccccc2)CC1` [N-(1-Benzyl-piperidin-4-yl)-2-(2,4-difluoro-phenyl)-acetamide] was 3.87 nM; that for `O=C(Cc1ccc([N+](=O)[O-])cc1[N+](=O)[O-])NC1CCN(Cc2ccccc2)CC1` [N-(1-Benzyl-piperidin-4-yl)-2-(2,4-dinitro-phenyl)-acetamide] was 14.2 nM; that for `O=C(Cc1cc(F)ccc1F)NC1CCN(Cc2ccccc2)CC1` [N-(1-Benzyl-piperidin-4-yl)-2-(2,5-difluoro-phenyl)-acetamide] was 4.21 nM.

As for `COc1ccc(OC)c(CC(=O)NC2CCN(Cc3ccccc3)CC2)c1` [N-(1-Benzyl-piperidin-4-yl)-2-(2,5-dimethoxy-phenyl)-acetamide], the affinity, expressed as Ki, was 43.4 nM. `O=C(Cc1c(Cl)cccc1Cl)NC1CCN(Cc2ccccc2)CC1` [N-(1-Benzyl-piperidin-4-yl)-2-(2,6-dichloro-phenyl)-acetamide] had an inhibition constant (Ki) of 7.28 nM. Still for that read-out and setting: the value for `O=C(Cc1c(F)cccc1F)NC1CCN(Cc2ccccc2)CC1` [N-(1-Benzyl-piperidin-4-yl)-2-(2,6-difluoro-phenyl)-acetamide] was 5.8 nM. Same read-out and setting: the figure for `O=C(Cc1ccccc1Br)NC1CCN(Cc2ccccc2)CC1` [N-(1-Benzyl-piperidin-4-yl)-2-(2-bromo-phenyl)-acetamide] is 2.89 nM; for `O=C(Cc1ccccc1Cl)NC1CCN(Cc2ccccc2)CC1` [N-(1-Benzyl-piperidin-4-yl)-2-(2-chloro-phenyl)-acetamide] it is 3.08 nM. `O=C(Cc1ccccc1O)NC1CCN(Cc2ccccc2)CC1` [N-(1-Benzyl-piperidin-4-yl)-2-(2-hydroxy-phenyl)-acetamide] registered a Ki of 18.8 nM.

For `COc1ccccc1CC(=O)NC1CCN(Cc2ccccc2)CC1` [N-(1-Benzyl-piperidin-4-yl)-2-(2-methoxy-phenyl)-acetamide], the Ki was found to be 30.8 nM. The compound `O=C(Cc1ccccc1[N+](=O)[O-])NC1CCN(Cc2ccccc2)CC1` [N-(1-Benzyl-piperidin-4-yl)-2-(2-nitro-phenyl)-acetamide] yielded a Ki of 26.9 nM. Still for that read-out and setting: the value for `O=C(Cc1ccccc1C(F)(F)F)NC1CCN(Cc2ccccc2)CC1` [N-(1-Benzyl-piperidin-4-yl)-2-(2-trifluoromethyl-phenyl)-acetamide] was 8.7 nM; that for `COc1cc(CC(=O)NC2CCN(Cc3ccccc3)CC2)cc(OC)c1OC` [N-(1-Benzyl-piperidin-4-yl)-2-(3,4,5-trimethoxy-phenyl)-acetamide] was 80 nM.

In the case of `O=C(Cc1ccc(Cl)c(Cl)c1)NC1CCN(Cc2ccccc2)CC1` [N-(1-Benzyl-piperidin-4-yl)-2-(3,4-dichloro-phenyl)-acetamide], the inhibitory constant (Ki) was found to be 5.22 nM. `O=C(Cc1ccc(F)c(F)c1)NC1CCN(Cc2ccccc2)CC1` [N-(1-Benzyl-piperidin-4-yl)-2-(3,4-difluoro-phenyl)-acetamide] gave a Ki of 3.17 nM. The same measure, in the same setting: the value for `COc1ccc(CC(=O)NC2CCN(Cc3ccccc3)CC2)cc1OC` [N-(1-Benzyl-piperidin-4-yl)-2-(3,4-dimethoxy-phenyl)-acetamide] was 352 nM.

`O=C(Cc1cc(F)cc(F)c1)NC1CCN(Cc2ccccc2)CC1` [N-(1-Benzyl-piperidin-4-yl)-2-(3,5-difluoro-phenyl)-acetamide] displayed an inhibition constant (Ki) of 7.63 nM. `COc1cc(CC(=O)NC2CCN(Cc3ccccc3)CC2)cc(OC)c1` [N-(1-Benzyl-piperidin-4-yl)-2-(3,5-dimethoxy-phenyl)-acetamide] showed a Ki of 121 nM. In turn, `O=C(Cc1cccc(Br)c1)NC1CCN(Cc2ccccc2)CC1` [N-(1-Benzyl-piperidin-4-yl)-2-(3-bromo-phenyl)-acetamide] yielded a Ki of 0.87 nM. As for `O=C(Cc1ccc(O)c(Cl)c1)NC1CCN(Cc2ccccc2)CC1` [N-(1-Benzyl-piperidin-4-yl)-2-(3-chloro-4-hydroxy-phenyl)-acetamide], affinity was put at a Ki of 23.8 nM. `O=C(Cc1cccc(Cl)c1)NC1CCN(Cc2ccccc2)CC1` [N-(1-Benzyl-piperidin-4-yl)-2-(3-chloro-phenyl)-acetamide] had a Ki of 1.4 nM. This Ki lies about 17-fold lower than the previous one. The same measure, in the same setting: the value for `O=C(Cc1cccc(F)c1)NC1CCN(Cc2ccccc2)CC1` [N-(1-Benzyl-piperidin-4-yl)-2-(3-fluoro-phenyl)-acetamide] was 2.45 nM; that for `O=C(Cc1cccc(O)c1)NC1CCN(Cc2ccccc2)CC1` [N-(1-Benzyl-piperidin-4-yl)-2-(3-hydroxy-phenyl)-acetamide] was 110 nM; that for `COc1cccc(CC(=O)NC2CCN(Cc3ccccc3)CC2)c1` [N-(1-Benzyl-piperidin-4-yl)-2-(3-methoxy-phenyl)-acetamide] was 10.5 nM. On the same count and under the same terms, the value for `O=C(Cc1cccc([N+](=O)[O-])c1)NC1CCN(Cc2ccccc2)CC1` [N-(1-Benzyl-piperidin-4-yl)-2-(3-nitro-phenyl)-acetamide] was 4.56 nM; that for `O=C(Cc1cccc(C(F)(F)F)c1)NC1CCN(Cc2ccccc2)CC1` [N-(1-Benzyl-piperidin-4-yl)-2-(3-trifluoromethyl-phenyl)-acetamide] was 3.92 nM.

The compound `O=C(Cc1ccc(Cl)cc1)NC1CCN(Cc2ccccc2)CC1` [N-(1-Benzyl-piperidin-4-yl)-2-(4-chloro-phenyl)-acetamide] returned a Ki of 6.46 nM. Same read-out and setting: the value for `O=C(Cc1ccc(F)cc1)NC1CCN(Cc2ccccc2)CC1` [N-(1-Benzyl-piperidin-4-yl)-2-(4-fluoro-phenyl)-acetamide] was 3.43 nM; that for `O=C(Cc1ccc(O)cc1)NC1CCN(Cc2ccccc2)CC1` [N-(1-Benzyl-piperidin-4-yl)-2-(4-hydroxy-phenyl)-acetamide] was 286 nM; that for `COc1ccc(CC(=O)NC2CCN(Cc3ccccc3)CC2)cc1` [N-(1-Benzyl-piperidin-4-yl)-2-(4-methoxy-phenyl)-acetamide] was 66.4 nM. Still for that read-out and setting: the value for `CSc1ccc(CC(=O)NC2CCN(Cc3ccccc3)CC2)cc1` [N-(1-Benzyl-piperidin-4-yl)-2-(4-methylsulfanyl-phenyl)-acetamide] was 27.1 nM. The compound `O=C(Cc1ccc([N+](=O)[O-])cc1)NC1CCN(Cc2ccccc2)CC1` [N-(1-Benzyl-piperidin-4-yl)-2-(4-nitro-phenyl)-acetamide] showed an inhibition constant (Ki) of 18 nM.

Consider `O=C(Cc1ccc(C(F)(F)F)cc1)NC1CCN(Cc2ccccc2)CC1` [N-(1-Benzyl-piperidin-4-yl)-2-(4-trifluoromethyl-phenyl)-acetamide], for which the Ki turned out to be 9.84 nM.
